# From patent US20060088471A1, “Compounds for enzyme inhibition” (Proteolix, Inc., priority 2004, published 2006)
# Key:
# [1] = test system: 8226 cells; assay: Cell viability, 8226; assay type: cell-based; settings: 24 hr
# [2] = biological target: purified human 20S proteasome (Homo sapiens, UniProt P28074); assay: Binding to the proteasome via fluorescence polarization; settings: 2 nM inhibitor
# Description: Fluorescence was measured using the excitation wavelength of 485 nm and an emission wavelength of 535 nm.
# 2 nM of Inhibitor 1 was incubated with a serial dilution of purified human 20S proteasome (from 400 pM to 40 nM) in a 20 mM Tris, pH 8.0, 0.5 mM EDTA, 0.03% SDS buffer and was allowed to bind to the proteasome during an incubation at room temperature as shown in FIG. 2. Fluorescence polarization was measured by exciting the samples at 485 nm and detecting the emitted fluorescence at 535 nm in a microwell plate in a fluorimeter capable of measuring fluorescence polarization (Tecan GENios Pro). […] When the concentration of human 20S was low (free Inhibitor 1), the mP was about 40 millipolarization units (mP). The fluorescence polarization at high concentrations of human 20S (bound Inhibitor 1) was about 110 mP.
# [3] = test system: chymotryptic-like activity of the proteasome in 8226 cells; assay: Cell chymotryptic activity in 8226 cells; assay type: cell-based, human; settings: 1 hr
# Description: (§1) The ability of Inhibitor 1 to inhibit the proteolytic activity of the human 20S proteasome (hu20S) both in vitro and in cells was tested using the fluorescent substrate for the chymotryptic-like activity of the proteasome, Suc-LLVY-AMC as shown in FIG. 1 and Table 1. Fluorescence was measured using the excitation wavelength of 340 nm and an emission wavelength of 465 nm. […] The assay was carried out in 20 mM Tris, pH 8.0, 0.5 mM EDTA, 0.03% SDS buffer with 5% DMSO.
# [4] = biological target: human 20S proteasome (hu20S) (Homo sapiens, UniProt P28074); assay: Human 20S chymotryptic activity, Suc-LLVY-AMC cleavage; assay type: biochemical; settings: for Human 20S Chymotryptic Activity kinact./Ki: 10 μM Suc-LLVY-AMC, 1 nM hu20S, 20 mM Tris pH 8.0, 0.5 mM EDTA, 0.03% SDS, 5% DMSO; for IC50 / kinact/KI: Suc-LLVY-AMC substrate; for IC50: read-out: Human 20S Chymotryptic Activity Vf IC50; for kinact/KI: read-out: Human 20S Chymotryptic Activity kobs/[I]
# Description: Proteasome activity was measured via LLVY-AMC cleavage. Fluorescence was measured using the excitation wavelength of 340 nm and an emission wavelength of 465 nm. The assay was carried out in 20 mM Tris, pH 8.0, 0.5 mM EDTA, 0.03% SDS buffer with 5% DMSO.
# as §1
# [5] = biological target: β5 subunit of human 20S or whole blood lysate (Homo sapiens, UniProt P28074); assay: Streptavidin gel shift assay compared with chymotryptic substrate cleavage assay; assay type: biochemical; settings: probe Inhibitor 3
# Description: Human 20S (50 nM) or whole blood lysate (100 mg/mL) was pretreated with either DMSO or Inhibitor 4 (200 nM) for 1 h. Inhibitor 3 (1 μM) was then added. After 1 h, unbound Inhibitor 3 was removed using a spin desalting column and the resulting solution was diluted (1:10) in 1% SDS and heated at 90° C. to denature the proteins. The solution was cooled to room temperature and streptavidin (±1 μg/15 μL) was added. The inhibitor/streptavidin solution was then added to NuPAGE sample buffer at room temperature (not boiled). The sample was then loaded on NuPAGE gel and run at 150 V in a refrigerator at approximately 4° C.
# [6] = test system: HT29 cells; assay: Cell viability, HT29; assay type: cell-based; settings: Homo sapiens, HT-29, 72 hr
# [7] = biological target: T1, chymotryptic-like activity of the proteasome in HT29 cells (Homo sapiens, UniProt P28074); assay: Cell chymotryptic activity in HT29 cells; assay type: cell-based; settings: 4 hr
# T1 construct: endogenous in cells; host or cells: HT29 cells
# Description: as §1
# [8] = test system: p53 levels; settings: epoxomicin treatment; cited from earlier work
SMILES,IC50 [1] [nM],"Fluorescence polarization, bound Inhibitor 1 ([2]; high concentrations of human 20S)","Fluorescence polarization, free Inhibitor 1 ([2]; low concentration of human 20S)",IC50 [3] [nM],Human 20S Chymotryptic Activity kinact./Ki [4],IC50 [4] [nM],kinact/KI [4] [M⁻¹ s⁻¹],Dose response: gel shift assay versus chymotryptic substrate cleavage assay [5],IC50 [6] [nM],IC50 [7] [nM],p53 levels stabilized [8]
"CC(C)C[C@H](NC(=O)[C@H](CCc1ccccc1)NC(=O)c1ccc(C2=C3C=CC(O)C=C3Oc3cc(O)ccc32)c(C(=O)O)c1)C(=O)N[C@@H](Cc1ccccc1)C(=O)N[C@@H](CC(C)C)C(=O)[C@@]1(C)CO1 (single isomer, unassigned) [Inhibitor 1]",191,about 110 mP,about 40 mP,340,"27,000 M^-1sec^-1",9.4,23000,,,,
CC(C)C[C@H](NC(=O)[C@H](CCc1ccccc1)NC(=O)CN1CCOCC1)C(=O)N[C@@H](Cc1ccccc1)C(=O)N[C@@H](CC(C)C)C(=O)[C@@]1(C)CO1 [Inhibitor 4],,,,,,,,comparable IC50 values,,,
CC(=O)N[C@@H](CCc1ccccc1)C(=O)N[C@@H](CC(C)C)C(=O)N[C@@H](Cc1ccccc1)C(=O)N[C@@H](CC(C)C)C(=O)[C@@]1(C)CO1 [YU101],5,,,7.3,"105,000 M^-1sec^-1",2,93500,,6.8,3.3,
CC[C@H](C)[C@H](NC(=O)[C@H]([C@@H](C)CC)N(C)C(C)=O)C(=O)N[C@H](C(=O)N[C@@H](CC(C)C)C(=O)[C@@]1(C)CO1)[C@@H](C)O [epoxomicin],,,,,,,,,,,over 50 fold
